Data set [1] concerns the target T1, recombinant human HDAC1 enzyme (Homo sapiens, UniProt Q13547).
T1 construct: made in house; host or cells: mammalian cells
As to the kind of experiment: HDAC1 assay (Fluor-de-Lys fluorescence). Format: biochemical. The following applies: HDAC Class I; read-out: IC50 Inhibition, HDAC1. The protocol:
(§1) The final concentration in the assay is 20 μM.
The HDAC1 enzyme is diluted in assay buffer prior to each use from a fresh aliquot of enzyme.
(§2) The final concentration in the assay is 1-2 nM.

The target in data set [2] is T2, recombinant human HDAC3 enzyme (HDAC3(DAD) enzyme complex) (Homo sapiens, UniProt O15379).
T2 construct: made in house; host or cells: mammalian cells
Nature of the data set: HDAC3 assay (Fluor-de-Lys fluorescence). Format: biochemical. The following applies: HDAC Class I; read-out: IC50 Inhibition, HDAC3. Here is the method: as §1, §2

The target in another data set is T3, human HDAC8 enzyme (Homo sapiens, UniProt Q9BY41).
T3 construct: full length (starting from amino acid 1 to 377+ linker IEGRGS+6 His); made in house; host or cells: E. coli BL21 codon plus
T3 sequence (Q9BY41 1-377): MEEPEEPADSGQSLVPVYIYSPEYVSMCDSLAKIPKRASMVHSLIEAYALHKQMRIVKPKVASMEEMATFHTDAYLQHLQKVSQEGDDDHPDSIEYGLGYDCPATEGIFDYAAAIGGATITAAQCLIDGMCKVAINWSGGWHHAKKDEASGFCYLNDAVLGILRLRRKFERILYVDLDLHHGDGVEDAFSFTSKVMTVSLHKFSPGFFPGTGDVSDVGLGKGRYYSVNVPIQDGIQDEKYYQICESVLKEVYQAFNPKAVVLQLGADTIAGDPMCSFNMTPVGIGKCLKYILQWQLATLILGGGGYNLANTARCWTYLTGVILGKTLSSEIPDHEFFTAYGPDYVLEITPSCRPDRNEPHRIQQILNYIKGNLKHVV
As to the kind of experiment: HDAC8 assay (Fluor-de-Lys-HDAC8 fluorescence). The format is biochemical.

The target of the next data set is HDAC4 (Homo sapiens, UniProt P56524). As to the kind of experiment: cell-free, isoform selective HDAC enzyme assay, HDAC4. The following applies: HDAC Class IIa; read-out: IC50 Inhibition, HDAC4. The format is biochemical.
In a further data set the target is T4, HDAC6 (Homo sapiens, UniProt Q9UBN7).
T4 sequence (Q9UBN7 1-1215): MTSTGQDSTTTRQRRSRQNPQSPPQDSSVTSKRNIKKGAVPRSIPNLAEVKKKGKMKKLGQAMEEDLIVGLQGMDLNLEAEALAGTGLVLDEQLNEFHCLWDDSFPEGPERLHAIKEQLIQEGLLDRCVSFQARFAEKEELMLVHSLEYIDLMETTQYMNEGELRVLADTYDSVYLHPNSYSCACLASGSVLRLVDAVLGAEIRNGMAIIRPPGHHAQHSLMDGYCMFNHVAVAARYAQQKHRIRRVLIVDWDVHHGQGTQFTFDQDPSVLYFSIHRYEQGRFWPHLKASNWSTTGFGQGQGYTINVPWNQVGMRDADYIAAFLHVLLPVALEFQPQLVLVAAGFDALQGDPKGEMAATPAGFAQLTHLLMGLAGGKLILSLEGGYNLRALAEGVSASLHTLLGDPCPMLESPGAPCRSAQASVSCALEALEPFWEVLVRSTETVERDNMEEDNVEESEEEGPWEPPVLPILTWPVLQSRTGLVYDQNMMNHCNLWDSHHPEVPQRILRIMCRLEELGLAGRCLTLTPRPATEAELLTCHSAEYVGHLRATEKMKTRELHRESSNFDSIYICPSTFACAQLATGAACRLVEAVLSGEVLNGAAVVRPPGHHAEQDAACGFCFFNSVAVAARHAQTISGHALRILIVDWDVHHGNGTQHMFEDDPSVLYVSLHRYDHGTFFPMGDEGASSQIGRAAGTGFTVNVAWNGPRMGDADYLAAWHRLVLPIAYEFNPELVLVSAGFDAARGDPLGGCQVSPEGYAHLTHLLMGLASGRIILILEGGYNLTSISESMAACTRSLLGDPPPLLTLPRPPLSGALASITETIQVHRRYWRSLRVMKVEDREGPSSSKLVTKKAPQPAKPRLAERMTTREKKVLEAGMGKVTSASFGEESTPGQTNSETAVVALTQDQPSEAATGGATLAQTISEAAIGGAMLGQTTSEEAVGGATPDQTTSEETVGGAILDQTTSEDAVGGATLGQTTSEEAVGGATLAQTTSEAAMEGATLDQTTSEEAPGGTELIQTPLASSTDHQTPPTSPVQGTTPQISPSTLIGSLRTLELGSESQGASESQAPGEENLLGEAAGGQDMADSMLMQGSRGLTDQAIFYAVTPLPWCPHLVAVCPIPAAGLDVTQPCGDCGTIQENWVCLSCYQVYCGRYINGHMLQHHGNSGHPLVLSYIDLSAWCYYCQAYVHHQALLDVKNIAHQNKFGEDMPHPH
Nature of the data set: cell-free, isoform selective HDAC enzyme assay, HDAC6. The format is biochemical.

The target of a further data set is T5, SIRT1 (Homo sapiens, UniProt Q96EB6).
T5 sequence (Q96EB6 1-747): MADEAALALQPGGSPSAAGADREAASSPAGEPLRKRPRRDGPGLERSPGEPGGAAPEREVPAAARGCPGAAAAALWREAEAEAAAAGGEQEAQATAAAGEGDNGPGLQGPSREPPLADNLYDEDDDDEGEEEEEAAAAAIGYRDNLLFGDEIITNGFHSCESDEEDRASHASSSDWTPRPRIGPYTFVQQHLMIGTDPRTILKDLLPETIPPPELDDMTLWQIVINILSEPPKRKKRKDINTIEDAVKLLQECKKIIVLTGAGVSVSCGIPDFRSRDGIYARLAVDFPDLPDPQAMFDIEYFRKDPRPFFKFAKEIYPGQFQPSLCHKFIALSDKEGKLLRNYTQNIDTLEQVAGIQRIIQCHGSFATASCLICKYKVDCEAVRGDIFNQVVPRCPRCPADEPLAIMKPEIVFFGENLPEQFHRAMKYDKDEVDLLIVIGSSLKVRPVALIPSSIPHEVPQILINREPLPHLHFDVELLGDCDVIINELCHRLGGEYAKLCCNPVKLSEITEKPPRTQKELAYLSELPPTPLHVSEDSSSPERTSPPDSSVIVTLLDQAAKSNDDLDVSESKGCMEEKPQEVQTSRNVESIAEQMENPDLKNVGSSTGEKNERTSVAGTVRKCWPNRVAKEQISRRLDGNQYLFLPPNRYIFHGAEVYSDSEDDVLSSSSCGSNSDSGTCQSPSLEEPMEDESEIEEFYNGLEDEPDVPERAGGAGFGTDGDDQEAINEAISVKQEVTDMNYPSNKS
Nature of the data set: cell-free, isoform selective HDAC enzyme assay, SIRT1. Format: biochemical. To be noted: HDAC Class III; read-out: IC50 Inhibition, SIRT1. Here is the method: The following pharmaceutically active compounds, all of which are taught in the prior art, were assessed for the inhibition of various HDAC subtypes the preceding cell-free, isoform selective HDAC enzyme assays: […]

Data set [3] has as its system acetylated histones in the brain. To be noted: see WO2003083067; cited from earlier work.

Read-outs that look alike come from different tables or passages of the source.

These results are taken from patent US20090325862A1, “Histone Deacetylase Inhibitors for the Treatment of Neurodegeneration” (priority 2006, published 2009).

Chain of HDAC4 (P56524 whole entry, species assumed, canonical isoform): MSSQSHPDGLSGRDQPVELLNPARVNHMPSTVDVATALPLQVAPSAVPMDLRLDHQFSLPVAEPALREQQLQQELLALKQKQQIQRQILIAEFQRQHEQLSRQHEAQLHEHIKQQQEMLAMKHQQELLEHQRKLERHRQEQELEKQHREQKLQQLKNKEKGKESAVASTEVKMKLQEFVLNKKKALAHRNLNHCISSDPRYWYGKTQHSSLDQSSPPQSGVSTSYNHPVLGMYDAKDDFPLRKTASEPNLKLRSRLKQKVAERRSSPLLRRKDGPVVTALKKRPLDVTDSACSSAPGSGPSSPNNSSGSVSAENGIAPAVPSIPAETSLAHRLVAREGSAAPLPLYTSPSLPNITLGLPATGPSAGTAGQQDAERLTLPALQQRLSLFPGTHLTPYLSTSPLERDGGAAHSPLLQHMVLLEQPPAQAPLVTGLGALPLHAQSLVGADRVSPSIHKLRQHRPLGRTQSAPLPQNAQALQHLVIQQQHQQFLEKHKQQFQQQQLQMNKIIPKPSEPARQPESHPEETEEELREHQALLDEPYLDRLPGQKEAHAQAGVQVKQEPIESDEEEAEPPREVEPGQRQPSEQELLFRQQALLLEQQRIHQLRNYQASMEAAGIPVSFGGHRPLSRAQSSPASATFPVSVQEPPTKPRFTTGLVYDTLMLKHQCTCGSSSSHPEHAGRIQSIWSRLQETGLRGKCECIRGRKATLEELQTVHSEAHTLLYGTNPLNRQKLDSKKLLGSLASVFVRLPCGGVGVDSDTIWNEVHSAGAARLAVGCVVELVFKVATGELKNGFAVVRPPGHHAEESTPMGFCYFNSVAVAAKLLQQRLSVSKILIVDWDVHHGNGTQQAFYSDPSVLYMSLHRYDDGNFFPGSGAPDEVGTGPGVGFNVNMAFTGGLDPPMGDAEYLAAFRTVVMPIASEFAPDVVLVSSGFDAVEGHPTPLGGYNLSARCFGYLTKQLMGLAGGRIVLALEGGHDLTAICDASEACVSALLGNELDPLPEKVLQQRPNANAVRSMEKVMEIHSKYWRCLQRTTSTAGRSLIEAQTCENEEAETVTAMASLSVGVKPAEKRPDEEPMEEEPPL
T2 sequence (O15379 whole entry): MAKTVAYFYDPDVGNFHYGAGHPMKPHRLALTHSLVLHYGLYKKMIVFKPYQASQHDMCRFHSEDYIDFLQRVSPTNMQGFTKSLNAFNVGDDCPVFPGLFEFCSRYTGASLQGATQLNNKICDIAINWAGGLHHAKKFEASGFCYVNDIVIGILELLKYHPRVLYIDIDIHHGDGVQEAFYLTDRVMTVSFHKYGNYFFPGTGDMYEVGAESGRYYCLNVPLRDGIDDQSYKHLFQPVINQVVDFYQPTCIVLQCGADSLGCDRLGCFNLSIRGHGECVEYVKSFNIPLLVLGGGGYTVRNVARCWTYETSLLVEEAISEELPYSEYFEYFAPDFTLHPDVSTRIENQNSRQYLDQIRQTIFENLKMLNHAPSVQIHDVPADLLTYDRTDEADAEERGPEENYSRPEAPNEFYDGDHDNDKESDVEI
T2 sequence (Q9Y618 389-480 partner limits assumed): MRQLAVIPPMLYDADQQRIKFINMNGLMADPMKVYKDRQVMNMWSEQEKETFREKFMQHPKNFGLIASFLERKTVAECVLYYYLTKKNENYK
T1 sequence (Q13547 whole entry): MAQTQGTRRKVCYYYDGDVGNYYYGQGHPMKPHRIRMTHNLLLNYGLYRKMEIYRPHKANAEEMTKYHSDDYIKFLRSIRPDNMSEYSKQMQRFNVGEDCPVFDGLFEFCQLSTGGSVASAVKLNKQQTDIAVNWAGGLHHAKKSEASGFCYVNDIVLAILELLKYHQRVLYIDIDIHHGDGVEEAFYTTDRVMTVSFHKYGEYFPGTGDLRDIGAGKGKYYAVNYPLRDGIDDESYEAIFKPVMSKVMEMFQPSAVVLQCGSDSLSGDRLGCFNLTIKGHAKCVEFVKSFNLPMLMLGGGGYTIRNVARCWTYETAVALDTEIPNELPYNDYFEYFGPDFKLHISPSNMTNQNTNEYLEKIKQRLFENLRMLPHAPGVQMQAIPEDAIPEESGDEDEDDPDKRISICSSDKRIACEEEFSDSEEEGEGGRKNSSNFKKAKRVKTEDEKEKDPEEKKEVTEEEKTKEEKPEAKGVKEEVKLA
Experimental for human HDAC8 enzyme: The HDAC8 assay is used to measure inhibitory activity of compounds against the human HDAC8 enzyme. The assay may be performed in 96 well or 384 well microtiter plates by pre-incubating serial dilutions of compounds with a fixed concentration of HDAC8 enzyme and then adding a diacetylated peptide-containing substrate/developer that fluoresces upon deacetylation. The deacetylase reaction is performed at 37° C. for 60 min and stopped by addition of the developer solution.
Reagents of the HDAC Fluorescent Activity Assay are purchased from BioMol Research Laboratories (Plymouth Meeting, Pa.), and include the Fluor-de-Lys™-HDAC8 Substrate/DeveloperII System. The reagents include the fluorescent substrate as a 5 mM stock solution, the and the DeveloperII Concentrate.
TSA is provided as a 10 mM stock solution in 100% DMSO.
The final concentration in the assay is 70 μM.
Test compounds are prepared as a 10×5% DMSO solution in distilled water. The final DMSO concentration in the reaction is 0.5%.
The experiment is performed in a 96-well microplate (Matrix Screenmates white), 50 ul volume, according to the following steps:
1) Add 5 ul of DMSO/compound solution
2) Add 40 ul of HDAC8 enzyme in assay buffer
4) Start the reaction by adding 5 ul of the 1 mM Substrate Solution
5) Incubate 1 h at 37° C. […]
8) Measure the fluorescence at Ex.360 nM and Em.460 nM […]

For orientation: IC50 means the concentration needed to halve the response being measured. Take `CCCCCC[C@@H](CCC)C(=O)O` [Arundic acid, (2R)-2-propyloctanoic acid]: the IC50 in data set [1] is 10 µM; in data set [2] it was 36 µM; on human HDAC8 enzyme (HDAC Class I, read-out: IC50 Inhibition, HDAC8), 31 µM; on HDAC4 it was greater than 50 µM; on HDAC6 (HDAC Class IIb, read-out: IC50 Inhibition, HDAC6), greater than 50 µM; at SIRT1, greater than 50 µM. Besides, on human HDAC8 enzyme (HDAC 8 potency similar to HDAC1 and HDAC3), the “potency at HDAC 8 relative to HDAC1 and HDAC3” value was no more than 5 fold.

For `O=C(CCCCCCC(=O)Nc1ccccc1)NO` [SAHA, suberoylanilide hydroxamic acid], in data set [3], the “accumulation of acetylated histones in the brain” value is on record as “cause accumulation of acetylated histones in the brain” and the “crossing of the blood-brain barrier” value is “cross the blood-brain barrier”.

Consider `CCCC(CCC)C(=O)O` [Valproic acid, 2-propylpentanoic acid], for which the values for the IC50 at HDAC4 and against HDAC6 were greater than 25 µM and greater than 5000 µM, respectively.
